Assay results from patent US20240252463A1, “METHODS OF TREATING FIBROTIC PATHOLOGIES” (Mayo Foundation for Medical Education and Research, priority 2018, published 2024).

What was measured:
Format in all cases: cell-based, human
CTGF, COL1A1, ACTA2, FN1 = test: qPCR of profibrotic and matrix remodeling gene expression in IPF patient-derived fibroblasts; details: 2 ng/mL TGFβ and 10 μM DHX, 24 hours
Protocol: FIGS. 3A-3F DHX reverses fibroblast matrix deposition, contraction and stiffening. 3a. […] Genes which encode Connective tissue growth factor (CTGF), Collagen I (COL1A1), αSMA (ACTA2), and Fibronectin (FN1) are reduced by 24 hour treatment with DHX (10 μM), +/−SCH 39166 (3 μM). N=3 (****p<0.0001, ***p<0.001, *p<0.05 vs. 0.1% DMSO vehicle control) 3b. DHX reverses TGFβ-induced αSMA+ stress fiber formation. IMR-90 cells pre-stimulated with 2 ng/mL TGFβ for 48 hours and then treated with DHX (10 μM)+2 ng/mL TGFβ for an additional 24 hours prior to fixation. Cells which are positive for αSMA were quantified by a blinded investigator and noted in the bottom right corner, a minimum of 300 cells in each experiment were quantified. N=3. 3c. DHX reverses TGFβ-induced extracellular matrix accumulation. […] Cell derived matrix is measured using antibodies for Collagen I and Fibronectin. […] DHX attenuates IPF patient-derived fibroblast contractility measured by traction force microscopy. […] RMS tractions were determined in two independent experiments; box and whisker plots show min to max, quartile, and mean from one representative experiment (****p<0.0001, *p<0.05 vs. 0.1% DMSO vehicle control). […] The matrices were decellularized and passage 3 NHLFs were plated onto the matrices; after 24 hours RNA was collected and expression of profibrotic genes was analyzed. […]

[1] = system: Collagen I and Fibronectin; test: Immuno-ECM: TGFβ-stimulated accumulation of collagen I and fibronectin; details: IPF patient-derived fibroblasts, TGFβ 48 hours then DHX 24 hours
Protocol: Immuno-ECM: Adapting from previously published methods, IPF patient-derived fibroblasts were plated to confluence in clear-bottom 96-well plates. After cells attached, the medium was swapped for EMEM containing 0.1% FBS+2 ng/mL TGF-β. After 48 hours the indicated concentration of DHX or DMSO control was added to each well and incubated for 24 hours. WST-1 viability reagent was added to each well (Sigma-Aldrich) and measured on a Flexstation 3 (Molecular Devices) plate reader. Cells were then fixed in 3.7% formalin (Sigma-Aldrich), and permeabilized in 0.25% Triton X-100 (Sigma-Aldrich). Wells were washed with tris-buffered saline (TBS) and blocked with Li-Cor Odyssey Blocking Buffer for 60 minutes before overnight incubation in a polyclonal rabbit antibody for fibronectin (Sigma sc-9068) or collagen I (Novus NB600-408) diluted 1:200 in blocking buffer. Wells were washed with TBS-Tween before 45 minute incubation with IR-dye-conjugated secondary antibody (Li-Cor #926-32211) diluted 1:400. Plates were imaged via a Li-Cor OdysseyXL system with quantification performed via densitometry. Data are expressed as IR intensity relative to WST-1 signal absorbance in order to account for any potential compound toxicity.

YAP/TAZ = YAP/TAZ nuclear localization in IMR-90 and other mesenchymal cells (cardiac, dermal fibroblasts, hepatic stellate cells); details: FIG. 37B

For `Oc1cc2c(cc1O)[C@H]1c3ccccc3CN[C@@H]1CC2` (racemic) [Dihydrexidine, dihydrexidine], the “expression of matrix crosslinking, protease inhibitor and matrix degradation genes” value (CTGF, COL1A1, ACTA2, FN1) was “reversed the effects of TGFβ”, the “TGFβ-stimulated accumulation of collagen I and fibronectin” value [1] was “dose-dependently reversed” and the “YAP/TAZ nuclear localization in mesenchymal cells derived from uterine fibroids” value (YAP/TAZ) was “marginal inhibition of YAP/TAZ nuclear localization”.
